Source: publication PMC9781087, “Discovery of New Microbial Collagenase Inhibitors” (Life, 2022)
Where two headings read alike, the source gives them in different places.

How the values were obtained:
collagenase A (ColA) = collagenase A (ColA) (Clostridium perfringens, UniProt P43153); assay: biochemical; set-up: species or system C. perfringens; details: for Inhibition (%) on ColA: after 30 min of incubation
Solubility = details: in words
[1] = tested on: Staphylococcus aureus, Enterococcus faecalis, and Staphylococcus epidermidis; set-up: method as in PMID 31486108; details: cited from earlier work
mice = tested on: mice; set-up: method as in PMID 34684834; details: acute toxicity; cited from earlier work
[2] = tested on: neuraminidase protein of Clostridium perfringens; details: cited from earlier work
[3] = tested on: rats intratendineously injected with collagenase; set-up: method as in PMID 28165813; details: intragastrical administration, 100 mg/kg; cited from earlier work
[4] = target: collagenase from Clostridium histolyticum; set-up: method as in PMID 16276971; details: cited from earlier work
[5] = read-out: Inhibition (%) on ColA
[6] = read-out: Inhibition(%) on ColA
[7] = 100 µM, preliminary screening (Table S1), * = compound precipitated due to low solubility

collagenase A (ColA), sequence (P43153 87-1104 limits assumed): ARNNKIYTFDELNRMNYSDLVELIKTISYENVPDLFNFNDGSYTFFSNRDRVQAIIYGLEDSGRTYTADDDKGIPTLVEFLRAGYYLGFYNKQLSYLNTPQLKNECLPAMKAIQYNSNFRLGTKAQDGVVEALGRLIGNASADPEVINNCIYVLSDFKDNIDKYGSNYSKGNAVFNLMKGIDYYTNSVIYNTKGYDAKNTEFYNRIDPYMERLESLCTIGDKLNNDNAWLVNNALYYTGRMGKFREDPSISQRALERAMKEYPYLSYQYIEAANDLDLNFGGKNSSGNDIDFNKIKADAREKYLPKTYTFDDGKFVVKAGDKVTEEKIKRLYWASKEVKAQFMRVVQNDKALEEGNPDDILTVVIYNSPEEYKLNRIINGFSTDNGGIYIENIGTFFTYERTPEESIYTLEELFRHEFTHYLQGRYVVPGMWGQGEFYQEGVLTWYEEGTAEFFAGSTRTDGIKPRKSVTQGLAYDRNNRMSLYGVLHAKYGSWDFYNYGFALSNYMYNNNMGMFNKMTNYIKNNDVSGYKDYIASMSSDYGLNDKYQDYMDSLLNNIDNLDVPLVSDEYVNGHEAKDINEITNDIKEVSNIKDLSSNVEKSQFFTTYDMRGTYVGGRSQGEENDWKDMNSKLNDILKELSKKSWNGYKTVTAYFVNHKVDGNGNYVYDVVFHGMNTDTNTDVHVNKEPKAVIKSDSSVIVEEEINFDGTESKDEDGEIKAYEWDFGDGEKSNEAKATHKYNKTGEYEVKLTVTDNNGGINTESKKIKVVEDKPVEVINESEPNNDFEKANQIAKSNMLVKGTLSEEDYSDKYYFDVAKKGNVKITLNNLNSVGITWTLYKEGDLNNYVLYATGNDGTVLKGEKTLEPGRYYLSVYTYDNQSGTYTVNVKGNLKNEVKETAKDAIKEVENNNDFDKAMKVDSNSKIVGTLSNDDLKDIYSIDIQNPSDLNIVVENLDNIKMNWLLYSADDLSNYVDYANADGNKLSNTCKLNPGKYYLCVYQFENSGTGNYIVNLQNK

O=C1c2ccc(O)cc2OC(c2cc(O)c(O)c(O)c2)C1O (stereo not drawn) [Dihydrorobinetin, dihydrorobinetin]
Inhibition (%) on ColA (collagenase A (ColA); 10 µM, mean ± SD of three replications): Almost complete inhibition | inhibition at 1 µM (collagenase A (ColA); [5]): -16.5 ± 1.6% | inhibition at 5 µM (collagenase A (ColA); [5]): -29.7 ± 0.5% | inhibition at 10 µM (collagenase A (ColA); [5]): 105.1 ± 0.5% | inhibition at 100 µM (collagenase A (ColA); [6]): 96.9% | solubility (Solubility): poor solubility in water

O=C1C=CC(=O)c2c(O)cccc21 [Juglone, juglone]
impact on the bacterial growth [1]: low impact on the bacterial growth | inhibitory effect on ColA (in words) (collagenase A (ColA)): potent inhibitors of ColA | Inhibition (%) on ColA (collagenase A (ColA); 100 µM, mean ± SD of three replications (five-dose assay)): Almost complete inhibition | inhibition at 1 µM (collagenase A (ColA); [5]): 13.8 ± 1.5% | inhibition at 5 µM (collagenase A (ColA); [5]): 50.6 ± 0.5% | inhibition at 10 µM (collagenase A (ColA); [5]): 69.2 ± 0.4% | inhibition at 50 µM (collagenase A (ColA); [5]): 80.8 ± 0.7%

COc1cc2c(cc1OC)-c1cc3ccc(OC)c(OC)c3c[n+]1CC2 [Palmatine chloride, palmatine chloride]
lethal dose 50 (mice): 1533.68 mg/kg | neuraminidase inhibition (in words) [2]: potent effect | Inhibition (%) on ColA (collagenase A (ColA); 50 µM, mean ± SD of three replications): Almost complete inhibition | inhibition at 1 µM (collagenase A (ColA); [5]): 15.5 ± 3.9% | inhibition at 5 µM (collagenase A (ColA); [5]): 35.4 ± 1.8% | inhibition at 10 µM (collagenase A (ColA); [5]): 84.9 ± 1.5% | inhibition at 50 µM (collagenase A (ColA); [5]): 97.9 ± 1.6% | inhibition at 100 µM (collagenase A (ColA); [5]): 98.7 ± 0.4% | inhibition at 100 µM (collagenase A (ColA); [6]): 103%

O=C(/C=C/C=C/c1ccc2c(c1)OCO2)N1CCCCC1 [Piperine, piperine]
morphological structure of rats' tendons [3]: improvement of the morphological structure | IC50 (in words) (collagenase A (ColA)): nanomolar range | inhibitory effect on ColA (in words) (collagenase A (ColA)): potent inhibitory effects on ColA, even at small concentration | inhibition at 1 µM (collagenase A (ColA); [5]): 84.5 ± 0.4% | inhibition at 5 µM (collagenase A (ColA); [5]): 82.4 ± 0.4% | inhibition at 10 µM (collagenase A (ColA); [5]): 72.5 ± 2.7% | inhibition at 100 µM (collagenase A (ColA); [6]): 81.1% | solubility (Solubility): low solubility

Cc1ccc(S(=O)(=O)N[C@@H](CCCNC(=N)N)C(=O)O)cc1 [nalpha-p-toluenesulfonyl-L-arginine]
Inhibition (%) on ColA (collagenase A (ColA); [7]): 24.8%

CC1=CC(=O)c2c(O)cccc2C1=O [plumbagin]
inhibition at 100 µM (collagenase A (ColA); [6]): -7.7%

COc1cc([C@@H]2c3cc4c(cc3[C@H](O)[C@H]3COC(=O)[C@H]23)OCO4)cc(OC)c1OC [podophyllotoxin, reference compound]
inhibition at 100 µM (collagenase A (ColA); [6]): -9.7%

O=C(O)[C@H]1/C(=C/CO)O[C@@H]2CC(=O)N21 [potassium clavulanate, reference compound]
inhibition at 100 µM (collagenase A (ColA); [6]): -8.1%

O=c1c(O)c(-c2ccc(O)c(O)c2)oc2cc(O)cc(O)c12 [quercetin]
IC50 [4]: 286 µM

O=C(O)C1=C[C@@H](O)[C@@H](O)[C@H](O)C1 [shikimic acid]
inhibition at 100 µM (collagenase A (ColA); [6]): -0.2%

O=S(=O)(O)CCS [sodium 2-mercaptoethanesulfonate, reference compound]
inhibition at 100 µM (collagenase A (ColA); [6]): 20.6%

CC1(C)[C@H](C(=O)O)N2C(=O)C[C@H]2S1(=O)=O [sulbactam, reference compound]
inhibition at 100 µM (collagenase A (ColA); [6]): -10.7%

C[C@]1(Cn2ccnn2)[C@H](C(=O)O)N2C(=O)C[C@H]2S1(=O)=O [tazobactam, reference compound]
inhibition at 100 µM (collagenase A (ColA); [6]): 18.7%

c1ccc2c3c([nH]c2c1)CNCC3 [tetrahydronorharman]
Inhibition (%) on ColA (collagenase A (ColA); [7]): 21.3%

C[C@@H]1O[C@@H](OC[C@H]2O[C@@H](Oc3c(-c4ccc(OCCO)c(OCCO)c4)oc4cc(OCCO)cc(O)c4c3=O)[C@H](O)[C@@H](O)[C@@H]2O)[C@H](O)[C@H](O)[C@H]1O [trihydroxyethylrutin, reference compound]
Inhibition (%) on ColA (collagenase A (ColA); [7]): 1.3%

O=c1ccc2ccc(O)cc2o1 [umbelliferone]
inhibition at 100 µM (collagenase A (ColA); [6]): -10.2%

CC(=O)c1c(O)c(C)c(O)c2c1OC1=CC(=O)C(C(C)=O)C(=O)C12C (stereo not drawn) [usnic acid]
inhibition at 100 µM (collagenase A (ColA); [6]): 3.9%

S-(acetamidomethyl)-L-cysteine
Inhibition (%) on ColA (collagenase A (ColA); [7]): -15.2%

myricitrin
inhibitory effect on ColA (in words) (collagenase A (ColA)): low inhibitory effect
